Series [1] has as its system complex N-glycans of BCECs. In words: Monosaccharide and sialic acid composition analysis of BCECs. The series is classed as cell-based, bovine. The conditions noted are these: fucose 8 hours, mannose 12 hours, galactose 24 hours, Neu5Ac 8 and 24 hours. The protocol:
Monosaccharide composition analysis was done using HPAEC-PAD (Thermo-Dionex ICS3000) and nmole amount of each monosaccharide present in 25 μg of protein was calculated. Samples were hydrolyzed using 2 N trifluoroacetic acid (TFA) at 100° C. for 4 hrs. Followed by removal of acid using dry nitrogen flush. To ensure complete removal of acid, samples were co-evaporated twice with 100 μl of 50% isopropyl alcohol (IPA). Finally, the samples were dissolved in Milli-Q water and injected on HPAEC-PAD. Monosaccharide profile was done using Dionex CarboPac PAI column (250 mm×4 mm; with 50 mm×4 mm guard column). An isocratic solvent mixture of 19 mM sodium hydroxide with 0.95 mM sodium acetate was used at a flow rate of 1 ml per minute for 25 mins. Data were acquired using manufacture supplied standard Quad waveform for carbohydrates. All neutral and amino sugars were identified and quantified by comparing with authentic monosaccharide standard mixture consisting of L-fucose, D-galactosamine, D-glucosamine, D-galactose, D-glucose and D-mannosc. Mild acid hydrolysis was used to release sialic acid. Briefly, samples were treated with 2 M acetic acid at 80° C. for 3 hrs followed by removal of excess acid using speed vacuum. […] Known amount of standard Neu5Ac was used to quantify amount of sialic acid in samples.

The test system of series [2] is HUVEC. Nature of the series: HUVEC migration assay. The format is cell-based, human. The conditions noted are these: 40 μM ManN alone. The protocol: HUVECs (passage 6-8) were cultured and serum-starved as described in “Western Blots”. Ten thousand cells in […] of EBM-2 medium were then added to the upper chamber of […] pore size cell culture inserts (Falcon) coated with 0.1% gelatin. The lower compartment was filled with […] EBM-2 medium containing various agents. The plates were incubated at 37° C. to allow migration. After 4 hrs, cells were fixed with 4% PFA for 20 min and then stained with crystal violet (Sigma-Aldrich) for 20 min at RT. Migrated cells on the bottom side of the insert membrane were quantified by counting whole area of the insert at 40× magnification. The experiments were carried out in triplicate and repeated three times. BCEC migration was set up similarly, except that wells were coated with FN, cells were suspended in 1% serum media and migration time was 18-24 hrs.

In series [3] the test system is O-glycan of BCEC lysates. Nature of the series: O-glycan analysis in BCEC lysates (MALDI-Tof). The series is classed as cell-based, bovine. The following applies: 40 μM ManN. The protocol: For O-glycan analysis, homogenized cell samples were treated with 50 mM NaOH in presence of 1M NaBH4 for 16 hrs at 45° C. The reaction mixture was neutralized using ice-cold 30% acetic acid slowly. The neutralized reaction mixture was then passed over Dowex 50-X cation exchange resin to remove sodium ion and lyophilized. Excess boric acid generated during neutralization was then removed by co-evaporation using acidified methanol and methanol respectively. Finally the O-glycan was purified by passing over C18 cartridge. Dried and purified O-glycan was then methylated and used for O-glycan analysis after permethylation. Permethylated samples were then dissolved in absolute methanol and mixed with SDHB (Super-DHB) MALDI matrix in 1:1 v/v ratio and spotted on maldi plate. Mass spectral data was acquired using Bruker AutoFlex mass spectrometer at positive, reflectron mode. The mass spectral data were analyzed and annotated using GlycoWork Bench software and masses matched with the proposed structures were annotated. The mono-isotopic ion intensities are taken for calculation.

Series [4] deals with α-glucosidase. In words: α-glucosidase activity assay. The format is biochemical, Saccharomyces cerevisiae. The following applies: up to 2 mM. The protocol: a-mannosidase activity was measured using substrate p-nitrophenyl α-mannopyranoside (1 mM). Enzyme from Jack Bean (M7257) (final concentration of 0.077 U) was incubated at 37° C. in a final volume of 50 μl of 50 mM potassium phosphate buffer, pH 7.5. α-glucosidase was assayed with substrate p-nitrophenyl a-glucoside (7 mM). Enzyme from Saccharomyces cerevisiae-type 1 (Sigma, G5003) (final concentration of 0.1 U) was incubated at 37° C. in a final volume of 50 μl of PBS, pH 7.5. β-Glucosidase was assayed with substrate 4-nitrophenyl β-D-glucopyranoside (Roche). Enzyme from almond (Sigma, G0395) (final concentration of 0.002 U) was incubated at 37° C. in a final volume of 50 μl of PBS, pH 7.5 […]. The incubation was stopped by addition of an equal volume of acid-based stop solution (R&D systems, 895032). Enzymatic activity was measured at 405 nm. α-glucosidase from Saccharomyces cerevisiae type I (G5003) with p-nitrophenyl α-D-glucopyranoside (Sigma, N1377) as the substrate.

For series [5], the system named is human retinal microvascular EC (hRMECs). In words: hRMEC proliferation assay. The series is classed as cell-based. The protocol:
Proliferation assays with BCECs and BRECs were performed. Log-phase growing BCECs or BRECs (passage <10) were trypsinized, re-suspended and seeded in 96-well plates (no coating) in low-glucose DMEM supplemented with 10% bovine calf serum, 2 mM glutamine, and antibiotics (growth medium), at a density of 1200-1500 cells per well in 200 μl volume. All reagents were added at the indicated final concentrations. After 3-6 days, cells were incubated with AlamarBlue for 4 hrs. Fluorescence was measured at 530 nm excitation wavelength and 590 nm emission wavelength. The experiments were repeated at least three times. To create a hypoxic condition, cells were placed in a hypoxia incubator with a mixture of gas consisting of 1% O2, 5% CO2 and 94% N2. On each 96-well plate, untreated and VEGF-treated (10/ng/ml) wells were included to monitor plate-to-plate variations. 20% methanol or 0.05% DMSO served as negative controls. […] Human RMVECs and human adult DMVECs were split into Gelatin-coated 96 wells (2000 cells per well) in low glucose DMEM containing 10% FBS. 1200 cells/well was set up for proliferation assay in low glucose media containing 0.5% FBS. Data was collected at day 4 or 5. HUVEC (p7-10) were grown on gelatin-coated plate until it reached 70-80% confluency.

Series [6] concerns 4T1 cells. In words: 4T1 proliferation assay (MTS). The format is cell-based.

From patent US20250275993A1, “GLYCOSYLATION INHIBITORS AS THERAPEUTICS FOR STROKE” (The Regents of the University of California, priority 2022, published 2025) come the findings set out here.

For `N[C@H](C=O)[C@@H](O)[C@H](O)[C@H](O)CO` [ManN, 2-Amino-2-deoxy-D-mannose], the “fucose, mannose, galactose and Neu5Ac content” value in series [1] is listed as “significant decrease”. For the same molecule, the HUVEC migration result in series [2] was “stimulation of migration and wound closure”. Moreover, the O-glycosylation result in series [3] is given as “overall decrease in O-glycosylation”. In addition, the “effect on α-glucosidase” value in series [4] was “No effect”. The “toxicity on hRMECs” value in series [5] (5 mM ManN) is “minimal toxicity”. Moreover, in series [5] (with VEGF), the “additivity with VEGF on hRMEC proliferation” value was “dose-dependent additivity with VEGF”. Also, in series [6] (5 mM), the “toxicity on 4T1 cells” value is listed as “significant toxicity”. For the same molecule, the “growth of 4T1” value in series [6] (ManN, MTS) was “did not promote growth”.
